# Source: article PMC6399515 (Insect Biochemistry and Molecular Biology, 2016)
# What was measured:
# [1] = molecular target: T1, CYP6P2 (Anopheles gambiae, UniProt Q8T629, V81I); assay: biochemical
# T1 sequence (Q8T629 1-507 V81I): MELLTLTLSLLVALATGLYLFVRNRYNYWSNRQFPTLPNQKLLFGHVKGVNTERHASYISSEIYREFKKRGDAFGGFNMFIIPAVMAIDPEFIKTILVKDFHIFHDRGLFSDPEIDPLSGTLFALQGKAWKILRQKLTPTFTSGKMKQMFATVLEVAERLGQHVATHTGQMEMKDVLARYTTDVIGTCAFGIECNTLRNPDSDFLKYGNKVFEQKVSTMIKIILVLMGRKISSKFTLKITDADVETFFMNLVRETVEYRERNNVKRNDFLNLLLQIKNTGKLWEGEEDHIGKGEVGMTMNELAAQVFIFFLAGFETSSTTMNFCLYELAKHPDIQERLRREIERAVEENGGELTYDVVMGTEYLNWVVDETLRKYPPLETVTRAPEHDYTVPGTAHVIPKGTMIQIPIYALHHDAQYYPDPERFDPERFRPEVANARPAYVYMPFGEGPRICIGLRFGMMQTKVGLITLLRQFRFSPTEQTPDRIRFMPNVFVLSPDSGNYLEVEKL
# T1 sequence (Q7QFI3 1-587 partner): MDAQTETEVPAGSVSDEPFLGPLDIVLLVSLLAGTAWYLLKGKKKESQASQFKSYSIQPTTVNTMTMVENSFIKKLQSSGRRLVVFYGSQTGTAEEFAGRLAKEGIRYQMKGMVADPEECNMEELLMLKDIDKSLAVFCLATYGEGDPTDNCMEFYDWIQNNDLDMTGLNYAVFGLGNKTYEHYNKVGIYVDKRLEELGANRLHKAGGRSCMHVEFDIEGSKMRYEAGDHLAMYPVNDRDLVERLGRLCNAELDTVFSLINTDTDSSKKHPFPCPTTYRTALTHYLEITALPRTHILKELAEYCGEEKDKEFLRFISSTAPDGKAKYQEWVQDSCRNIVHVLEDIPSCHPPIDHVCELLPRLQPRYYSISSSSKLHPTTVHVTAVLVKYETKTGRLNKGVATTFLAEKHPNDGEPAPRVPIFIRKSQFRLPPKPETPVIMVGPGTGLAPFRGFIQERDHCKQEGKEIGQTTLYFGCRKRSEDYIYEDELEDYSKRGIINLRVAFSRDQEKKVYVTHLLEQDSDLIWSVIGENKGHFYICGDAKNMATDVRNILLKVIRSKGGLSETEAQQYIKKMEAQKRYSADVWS
# T1 sequence (Q86QH4 1-128 partner): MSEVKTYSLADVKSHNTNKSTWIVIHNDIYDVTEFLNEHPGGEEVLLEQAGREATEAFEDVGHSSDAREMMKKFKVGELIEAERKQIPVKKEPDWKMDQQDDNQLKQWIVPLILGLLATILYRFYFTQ
# [2] = molecular target: T2, CYP9J5 (Anopheles gambiae, UniProt Q5TN57); assay: biochemical
# T2 sequence (Q5TN57 1-545): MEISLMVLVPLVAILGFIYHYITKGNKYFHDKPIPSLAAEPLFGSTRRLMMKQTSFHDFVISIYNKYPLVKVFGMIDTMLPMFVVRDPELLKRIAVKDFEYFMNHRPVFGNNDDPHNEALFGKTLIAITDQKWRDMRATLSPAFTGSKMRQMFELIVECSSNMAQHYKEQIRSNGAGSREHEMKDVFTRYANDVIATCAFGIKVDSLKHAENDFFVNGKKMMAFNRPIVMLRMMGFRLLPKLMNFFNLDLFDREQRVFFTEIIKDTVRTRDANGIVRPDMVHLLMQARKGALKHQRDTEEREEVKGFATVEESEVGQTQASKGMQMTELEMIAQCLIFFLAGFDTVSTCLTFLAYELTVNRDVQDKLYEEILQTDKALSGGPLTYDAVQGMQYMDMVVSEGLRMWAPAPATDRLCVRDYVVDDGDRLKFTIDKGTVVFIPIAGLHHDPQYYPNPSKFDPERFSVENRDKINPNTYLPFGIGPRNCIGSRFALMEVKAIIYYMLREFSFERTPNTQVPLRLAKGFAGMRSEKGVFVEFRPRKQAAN
# T2 sequence (Q86QH5 1-679 partner): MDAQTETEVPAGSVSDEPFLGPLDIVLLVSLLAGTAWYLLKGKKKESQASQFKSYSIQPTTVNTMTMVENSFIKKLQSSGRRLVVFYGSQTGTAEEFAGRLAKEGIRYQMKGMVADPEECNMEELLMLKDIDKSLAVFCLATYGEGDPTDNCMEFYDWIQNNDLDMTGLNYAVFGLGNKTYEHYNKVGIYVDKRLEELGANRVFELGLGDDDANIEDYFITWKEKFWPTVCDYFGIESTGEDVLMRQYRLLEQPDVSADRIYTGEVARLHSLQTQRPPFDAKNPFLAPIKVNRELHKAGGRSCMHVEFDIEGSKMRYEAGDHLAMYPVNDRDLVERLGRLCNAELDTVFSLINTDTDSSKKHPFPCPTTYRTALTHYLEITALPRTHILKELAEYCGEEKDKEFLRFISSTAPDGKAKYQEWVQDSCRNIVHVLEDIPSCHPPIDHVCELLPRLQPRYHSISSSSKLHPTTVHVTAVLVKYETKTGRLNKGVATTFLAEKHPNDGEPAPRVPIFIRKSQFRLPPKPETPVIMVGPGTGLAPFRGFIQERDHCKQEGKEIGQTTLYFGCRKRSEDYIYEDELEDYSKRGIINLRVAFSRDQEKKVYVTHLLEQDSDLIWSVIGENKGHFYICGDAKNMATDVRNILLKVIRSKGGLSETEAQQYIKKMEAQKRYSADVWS
# T2 sequence (Q86QH4 1-128 partner): T1 sequence (Q86QH4 1-128 partner)
# [3] = molecular target: CYP6M2 (Anopheles gambiae, UniProt Q7Q449); assay: biochemical
# CYP6M2, sequence (Q7Q449 1-499, one chain of several): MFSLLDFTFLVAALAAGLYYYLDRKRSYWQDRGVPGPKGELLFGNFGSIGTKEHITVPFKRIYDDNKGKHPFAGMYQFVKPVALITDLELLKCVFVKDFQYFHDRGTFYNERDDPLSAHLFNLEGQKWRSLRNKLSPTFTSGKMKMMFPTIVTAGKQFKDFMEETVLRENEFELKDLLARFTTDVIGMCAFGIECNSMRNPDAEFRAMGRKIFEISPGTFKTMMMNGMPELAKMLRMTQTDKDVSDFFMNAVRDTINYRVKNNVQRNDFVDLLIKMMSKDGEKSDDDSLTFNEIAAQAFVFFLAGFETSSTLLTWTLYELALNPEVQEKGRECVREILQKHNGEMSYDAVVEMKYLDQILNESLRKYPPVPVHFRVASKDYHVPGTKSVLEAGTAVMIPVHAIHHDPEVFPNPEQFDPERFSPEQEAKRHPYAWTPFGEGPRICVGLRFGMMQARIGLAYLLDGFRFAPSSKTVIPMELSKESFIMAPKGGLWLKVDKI
# [4] = molecular target: T3, CYP6Z2 (Anopheles gambiae, UniProt A8I285)
# T3 sequence (A8I285 1-492): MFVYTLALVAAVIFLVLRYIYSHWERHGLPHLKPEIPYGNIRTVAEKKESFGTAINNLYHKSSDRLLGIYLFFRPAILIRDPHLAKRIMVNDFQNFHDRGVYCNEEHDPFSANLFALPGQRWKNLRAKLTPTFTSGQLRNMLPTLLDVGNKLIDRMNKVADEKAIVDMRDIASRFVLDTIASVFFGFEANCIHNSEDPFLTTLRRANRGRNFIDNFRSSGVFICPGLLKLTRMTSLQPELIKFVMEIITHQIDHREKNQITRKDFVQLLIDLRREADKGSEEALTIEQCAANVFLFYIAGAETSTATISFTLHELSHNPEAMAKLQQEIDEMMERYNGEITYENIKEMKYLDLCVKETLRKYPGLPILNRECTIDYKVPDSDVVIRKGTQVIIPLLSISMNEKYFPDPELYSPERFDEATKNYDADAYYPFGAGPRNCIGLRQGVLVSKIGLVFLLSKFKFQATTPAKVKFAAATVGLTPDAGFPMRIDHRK
# T3 sequence (Q86QH5 1-679 partner): T2 sequence (Q86QH5 1-679 partner)
# T3 sequence (Q86QH4 1-128 partner): T1 sequence (Q86QH4 1-128 partner)
SMILES,IC50 ([1]; IC50 of DEF metabolism) [µM],IC50 [2] [µM],IC50 [3] [µM],"% PPF depletion + PBO ([4]; Anopheles gambiae, pH 7.4) [%]","% PPF depletion −PBO ([4]; Anopheles gambiae, pH 7.4) [%]",IC50 ([1]; category of inhibition of DEF metabolism) [µM],Inhibition ratio (%): reduction of PPF depletion caused by PBO [4] [%]
"CC1(C)C(C=C(Cl)Cl)C1C(=O)OCc1cccc(Oc2ccccc2)c1 (mixture of isomers) [Permethrin, 3-phenoxybenzyl (1R,S)-cis,trans-3-(2,2-dichlorovinyl)-2,2-dimethylcyclopropanecarboxylate]",8.61,6.47,8.07,,,,
"CC(COc1ccc(Oc2ccccc2)cc1)Oc1ccccn1 (stereo not shown) [PPF, pyriproxyfen]",9.95,19,14.1,8.41 ± 1.58,66.26 ± 3.02,1 to 10,
"CCCCOCCOCCOCc1cc2c(cc1CCC)OCO2 [PBO, piperonyl butoxide]",,,,,,,87.3
